Measurements taken from ChEMBL document CHEMBL4145555, “Synthetic Approaches to New Drugs Approved During 2016” (J Med Chem, 2018).

Assay: Half life in human plasma at 20 mg/day, po
Assay type: ADME, organism-based

half-life: 10 to 12 h
Structure (SMILES): Cl.Clc1ccc(CCCOCCCN2CCCCC2)cc1 [PITOLISANT HYDROCHLORIDE]
